These results are taken from patent publication EP1013272A1, “Manipulation of the activity of a nitric oxide radical production pathway for the treatment of diseases associated with the presence of oxygen free radicals” (Biomedical Primate Research Centre (BPRC), priority 1998, dated 2000).

The subject of assay [1] is rat spleen cell cultures. The experiment in a line: In vivo exposure to HgCl2, then ELISPOT of Con A-stimulated spleen cell cultures. The conditions noted are these: for reduction in the ratio of IFN-γ pc/IL-4 pc: day 3 after first HgCl2 injection. The procedure: (§1) Female BN and Lewis rats at 8 to 12 weeks of age were used in all experiments. Animals were obtained from Harlan CPB (Zeist, The Netherlands) and housed in the animal care facility of our institute and maintained on standard laboratory chow and water ad libitum. For some experiments, rats were injected twice with 1 mg HgCl2/kg body weight by the intraperitoneal route with an interval of 48 h. Four repeated i.p. injections with this dose of HgCl2 at 48 h intervals induce a TH2-biased autoimmune syndrome in BN but not Lewis rats that becomes clinically evident (massive proteinuria) approximately 13 days after the first injection with HgCl2 (16).
The aseptically removed spleen was gently crushed with the blunt end of a 5-ml syringe plunger and passaged through a fine mesh nylon screen. Erythrocytes were hemolysed by adding cold sterile water for 20 sec. to cell pellets followed by the addition of half the volume of 2.7% saline. The number of cells was determined by use of Türk's solution and cell viability by means of trypan blue exclusion. Cell suspensions in which the viability was less than 85% were excluded from the studies. Splenocytes were washed twice with CM5, adjusted to 4 x 10^6 cells/ml, transferred to a 24-well culture plate (1.0 ml/well) and stimulated with Con A (5 µg/ml) in the presence or absence of various supplements (as indicated in the text) for 40 h at 37°C in a humidified atmosphere containing 5% CO2. Thereafter, non-adherent cells were collected and subjected to ELISPOT analyses as described below.
The ELISPOT assay for detecting single cytokine secreting cells has been detailed previously (17). Briefly, the wells of PVC microplates were coated with monoclonal antibodies specific for rat IFN-γ or rat IL-4. After washing and postcoating, 100 µl suspensions of Con A-activated splenocytes were pipetted into the wells. The cells were allowed the produce cytokines for either 4 h (IFN-γ pc) or 16 h (IL-4 pc). Thereafter, cells were lysed for 10 minutes with ice-cold distilled water. Subsequently, the wells were thoroughly washed with PBS containing 0.05% Tween-20. Spots were detected by the sequential incubation of biotinylated rabbit anti-cytokine antibodies and goat anti-biotin antibodies conjugated to alkaline phosphatase (AP). The AP substrate 5-bromo-4-chloro-3-indolyl phosphate was used to produce blue zones ('spots') that visualised the positions of the individual spot-forming cells (SFC). SFC were enumerated by image analysis using a stereo microscope coupled to a colour video camera and Micro Image software from Olympus Optical Co. The frequency of spontaneously occurring SFC was always less than 1% of the mitogen-induced frequency.
Spleens were isolated from rats at 24 h after the second intraperitoneal injection with saline or HgCl2 (1 mg/kg b.w.). Spleen cells were stimulated with Con A (5 µg/ml) in the presence of 2 mM GSH. The experiments were performed at three independent occasions with similar results. At each occasion the ELISPOT analyses were performed in quadruplicate. One representative experiment is presented. Both reduction of IFN-γ pc and enhancement of IL-4 pc (BN splenocytes only) as a result of in vivo exposure to HgCl2 reached in all analyses statistical significance (p < 0.01).

The test system of assay [2] is splenocytes. The experiment in a line: Superoxide anion release by splenocytes after in vivo HgCl2. Set-up: species or system rat. The procedure: as §1
The pMØ monolayers were incubated for 20 h at 37°C in CM10 and subsequently washed (twice) with Hanks' balanced salt solution (HBSS) without phenol red. Thereafter, the cells were treated with PMA and assayed for ^·O2^- production by measuring the rate of SOD-inhibitable ferricytochrome C reduction (20, 21). To that purpose the macrophage monolayer was incubated for 1 h at 37°C with an 1.0 ml reaction mixture containing 100 µM ferricytochrome C in HBSS with or without PMA (100 ng/ml). […] Each test was run in duplicate and the absorption increase at 550 nm was measured using a Beckmann DU-5 spectrophotometer. ^·O2^- release by splenocytes was determined after Con A activation of 4 x 10^6 cells for 20 h. […]

[3] abbreviates: BN, HgCl2 in vivo, no culture supplement, Con A + 2 mM GSH (Table 4).
Where [4] appears, read: BN, HgCl2 in vivo, no culture supplement, Con A + 2 mM GSH (Table 6).
Where [5] appears, read: BN, HgCl2 1 mg/kg b.w. i.p. twice, spleens 24 h after second injection, Con A 5 µg/ml + 2 mM GSH.
[6] abbreviates: Lewis, HgCl2 in vivo, no culture supplement, Con A + 2 mM GSH (Table 4).
The mark [7] stands for this setting: Lewis, HgCl2 in vivo, no culture supplement, Con A + 2 mM GSH (Table 6).
Setting [8] is: Lewis, HgCl2 1 mg/kg b.w. i.p. twice, spleens 24 h after second injection, Con A 5 µg/ml + 2 mM GSH.

Each structure is given as a SMILES string.

On to `[Cl][Hg][Cl]` [HgCl2, mercuric chloride], for which the figures for the “reduction in the ratio of IFN-γ pc/IL-4 pc” value in assay [1] (BN splenocyte cultures) and in assay [1] (Lewis splenocyte cultures) were around 6 fold and around 2 fold, respectively. Moreover, the “IFN-γ pc per 1x10^4 MNC” value in assay [1] (setting [3]) is given as 30 ± 8 per 1 x 10^4 MNC; in assay [1] (setting [4]), 35 ± 8 per 1x10^4 MNC; in assay [1] (setting [5]), 34 ± 8 per 1 x 10^4 MNC; in assay [1] (setting [6]) it was 104 ± 1 per 1 x 10^4 MNC; in assay [1] (setting [7]) it was 104 ± 11 per 1x10^4 MNC; in assay [1] (setting [8]), 103 ± 9 per 1 x 10^4 MNC. In addition, the “IL-4 pc per 2x10^5 MNC” value is reported as 88 ± 14 per 2 x 10^5 MNC in assay [1] (setting [3]); 87 ± 14 per 2x10^5 MNC in assay [1] (setting [4]); 101 ± 12 per 2 x 10^5 MNC in assay [1] (setting [5]); 11 ± 3 per 2 x 10^5 MNC in assay [1] (setting [6]); 13 ± 3 per 2x10^5 MNC in assay [1] (setting [7]); 12 ± 7 per 2 x 10^5 MNC in assay [1] (setting [8]). Further, the “ratio IFN-γ pc/IL-4 pc” value in assay [1] (setting [3]) stood at 6.8; in assay [1] (setting [5]), 6.7; in assay [1] (setting [6]), 189; in assay [1] (setting [8]), 172. Moreover, the “ratio pc IFN-γ/IL-4” value came out at 8 in assay [1] (setting [4]) and 160 in assay [1] (setting [7]). In assay [2], the “^·O2^- levels” value is recorded as “below the detection limit”.
